Results on five molecules are retold here after patent US20160318938A1, “CRYSTALS (2) OF PYRAZINO[2,1-c][1,2,4]TRIAZINE COMPOUND” (PRISM PHARMA CO., LTD., priority 2013, published 2016).

Holding throughout (assay type): physicochemical
The nature of data set [1]: Hygroscopicity evaluation by dynamic water adsorption measuring apparatus. The note with it: 25° C.; for variation in the mass (weight) with increasing relative humidity: 5-95% RH stepwise; for hygroscopicity: 5-95% RH. The procedure: The hygroscopicity of Examples 1, 3 and Comparative Example 1 was evaluated by a dynamic water adsorption measuring apparatus. A sample mounting part of the apparatus was maintained at 25° C., and the relative humidity (RH) was set stepwisely within the range of 5-95% RH. The humidity was controlled by changing the relative flow of 0% RH dry nitrogen and 100% RH humidified nitrogen. The sample weight was confirmed at 2 min intervals by a micro balance, and the humidity was sequentially changed at the time point when the weight shift range for 5 min was below 0.01%.

Data set [2] is described as follows: Relationship between water content of solvent and crystal form (heptane/ethanol 16:3). As to conditions: for crystal form: overnight. The method, then:
To a saturated solution of crystal C in a mixed solvent of heptane and ethanol (volume ratio 16:3) were added crystal C (100 mg) and crystal D (100 mg) at a temperature shown in Table 2, water in the amount shown in Table 6 was further added, and the mixture was stood overnight. The water content of the solution after the standing was measured by the Karl Fischer method, and the crystal form of compound 1 was measured by powder X-ray diffraction. The amount of the water added is shown in mass % relative to the mass of the whole solvent.

A short description of data set [3]: Stability evaluation of crystals A, B and C (mixture of equal amounts in supersaturated solution). The note with it: for form of the crystal obtained: equal amounts of crystals A, B and C, one day; for relative stability among crystals A, B and C: room temperature or 40° C. The method, then:
To a supersaturated solution of compound 1 using the solvents shown in Table 8 was added a mixture of equal amounts of crystals A, B and C at room temperature or 40° C., and the form of the crystal obtained one day later was observed using powder X-ray diffraction.

Data set [4] is described as follows: Thermal stability of crystals A and D (oven heating overnight, powder X-ray diffraction). As to conditions: for crystal form after heating: oven, overnight. The procedure: Crystals A and D were heated in an oven at 50° C. or 70° C. overnight, and transition of each crystal was confirmed by powder X-ray diffraction.
The nature of data set [5]: Stability evaluation of crystal A: slurry in solvents, crystal form by powder X-ray diffraction and DSC. The note with it: room temperature, 2 days. The method, then: Crystal A was added in excess to the solvents described in Table 1 to give a slurry, which was stood at room temperature for 2 days, and the crystal form thereof was measured using powder X-ray diffraction and differential scanning calorimeter (DSC).

The mark [6] stands for this setting: single crystal form in heptane/ethanol (16:3) with water content of less than 0.5%, stood overnight.

Entries after “also recorded” stand apart in the source; their conditions may differ.

Take `C[C@H]1C2N(C(=O)CN(C)N2C(=O)NCc2ccccc2)[C@@H](Cc2ccc(O)cc2)C(=O)N1Cc1cccc2cccnc12` (stereo partly drawn) [Comparative Example 1, (6S,9S)—N-benzyl-6-(4-hydroxybenzyl)-2,9-dimethyl-4,7-dioxo-8-(quinolin-8-ylmethyl)octahydro-1H-pyrazino[2,1-c][1,2,4]triazine-1-carboxamide]: in data set [1], the “variation in the mass (weight) with increasing relative humidity” value is given as “weight increased along with an increase in the humidity”.

For the molecule `C[C@H]1C2N(C(=O)CN(C)N2C(=O)NCc2ccccc2)[C@@H](Cc2ccc(O)cc2)C(=O)N1Cc1cccc2cccnc12` (stereo partly drawn) [compound 1, (6S,9S)—N-benzyl-6-(4-hydroxybenzyl)-2,9-dimethyl-4,7-dioxo-8-(quinolin-8-ylmethyl)octahydro-1H-pyrazino[2,1-c][1,2,4]triazine-1-carboxamide], the crystal form result is reported as “crystal C” in data set [2] (crystal C + crystal D (100 mg each) in heptane/ethanol 16:3, 5° C., water added 0 mass %, water content 0.32%); “crystal D” in data set [2] (crystal C + crystal D (100 mg each) in heptane/ethanol 16:3, 5° C., water added 0.5 mass %, water content 0.93%); “crystal D” in data set [2] (crystal C + crystal D (100 mg each) in heptane/ethanol 16:3, 5° C., water added 1.0 mass %, water content 1.56%); “crystal C” in data set [2] (crystal C + crystal D (100 mg each) in heptane/ethanol 16:3, 40° C., water added 0 mass %, water content 0.33%); “crystal D” in data set [2] (crystal C + crystal D (100 mg each) in heptane/ethanol 16:3, 40° C., water added 0.5 mass %, water content 0.94%); “crystal D” in data set [2] (crystal C + crystal D (100 mg each) in heptane/ethanol 16:3, 40° C., water added 1.0 mass %, water content 1.55%). Besides, the crystal form result in data set [2] (crystal C + crystal D (100 mg each) in heptane/ethanol 16:3, room temperature, water added 0 mass %, water content 0.33%) is “crystal C”; in data set [2] (crystal C + crystal D (100 mg each) in heptane/ethanol 16:3, room temperature, water added 0.5 mass %, water content 0.93%), “crystal D”; in data set [2] (crystal C + crystal D (100 mg each) in heptane/ethanol 16:3, room temperature, water added 1.0 mass %, water content 1.57%) it was “crystal D”. For the same molecule, the crystal form obtained entry in data set [2] (crystal C + crystal D in heptane/ethanol 16:3, amount of water further added exceeded 2 mass %) is listed as “crystal A was obtained”; in data set [2] (crystal C + crystal D in heptane/ethanol 16:3, water content less than 0.5%) it was “crystal C was obtained”; in data set [2] (crystal C + crystal D in heptane/ethanol 16:3, water content not less than 0.5%) it was “crystal D was obtained”. Besides, the “form of the crystal obtained” value in data set [3] (MTBE, 40° C.) is reported as “crystal C”; in data set [3] (MTBE, room temperature), “crystal C”; in data set [3] (ethyl acetate, 40° C.), “crystal C”; in data set [3] (ethyl acetate, room temperature) it was “crystal C”; in data set [3] (isopropanol, 40° C.), “crystal C”; in data set [3] (isopropanol, room temperature) it was “crystal C”. Further, the “form of the crystal obtained” value in data set [3] (isopropyl acetate, 40° C.) is listed as “crystal C”; in data set [3] (isopropyl acetate, room temperature), “crystal C”; in data set [3] (water, 40° C.), “crystal A”; in data set [3] (water, room temperature), “crystal A”.

As for `C[C@H]1C2N(C(=O)CN(C)N2C(=O)NCc2ccccc2)[C@@H](Cc2ccc(O)cc2)C(=O)N1Cc1cccc2cccnc12` (stereo partly drawn) [crystal A, (6S,9S)—N-benzyl-6-(4-hydroxybenzyl)-2,9-dimethyl-4,7-dioxo-8-(quinolin-8-ylmethyl)octahydro-1H-pyrazino[2,1-c][1,2,4]triazine-1-carboxamide], in data set [4] (crystal A versus crystal D, 50° C. overnight), the “relative stability to heat” value is “more stable to heat than crystal D”. Besides, the “crystal form after heating” value was “did not show transition; also recorded: not transited; also recorded: crystal A” in data set [4] (50° C.) and “transits to an amorphous form” in data set [4] (70° C.). Moreover, the “relative stability among crystals A, B and C” value in data set [3] (water) is recorded as “most stable in water”. In addition, the hygroscopicity entry in data set [1] is “low”. Moreover, the “variation in the mass (weight) with increasing relative humidity” value in data set [1] (listed as Example 1) is “weight did not increase”. Besides, the crystal form result in data set [5] (crystal A slurry in MTBE) is “transition did not occur; also recorded: crystal A”; in data set [5] (crystal A slurry in acetonitrile), “transition did not occur; also recorded: crystal A”; in data set [5] (crystal A slurry in ethanol), “transition to crystal C occurred gradually”; in data set [5] (crystal A slurry in ethyl acetate) it was “transition to crystal C occurred gradually”; in data set [5] (crystal A slurry in isopropanol) it was “transition to crystal C occurred gradually”; in data set [5] (crystal A slurry in isopropyl acetate), “transition did not occur; also recorded: crystal A”. For the same molecule, the crystal form entry in data set [5] (crystal A slurry in methanol) was “transition to crystal B occurred”; in data set [5] (crystal A slurry in methylethyl ketone), “transition did not occur; also recorded: crystal A”; in data set [5] (crystal A slurry in tetrahydrofuran), “transition to an amorphous form occurred”; in data set [5] (crystal A slurry in water), “transition did not occur; also recorded: crystal A”.

As to `C[C@H]1C2N(C(=O)CN(C)N2C(=O)NCc2ccccc2)[C@@H](Cc2ccc(O)cc2)C(=O)N1Cc1cccc2cccnc12` (stereo partly drawn) [crystal C, (6S,9S)—N-benzyl-6-(4-hydroxybenzyl)-2,9-dimethyl-4,7-dioxo-8-(quinolin-8-ylmethyl)octahydro-1H-pyrazino[2,1-c][1,2,4]triazine-1-carboxamide], the “transition of crystal form” value in data set [2] (setting [6]) was “transition of crystal form did not occur; also recorded: not transited”; in data set [2] (single crystal form in heptane/ethanol (16:3) with water content of not less than 0.5%, left overnight) it was “transited to crystal D”. Further, in data set [3] (isopropanol, isopropyl acetate, MTBE or ethyl acetate), the “relative stability among crystals A, B and C” value is recorded as “most stable in other nonaqueous solvents”. Besides, in data set [1], the hygroscopicity entry was “low”. For the same molecule, in data set [1] (listed as Example 3), the “variation in the mass (weight) with increasing relative humidity” value is “weight did not increase”.

With `C[C@H]1C2N(C(=O)CN(C)N2C(=O)NCc2ccccc2)[C@@H](Cc2ccc(O)cc2)C(=O)N1Cc1cccc2cccnc12` (stereo partly drawn) [crystal D, (6S,9S)—N-benzyl-6-(4-hydroxybenzyl)-2,9-dimethyl-4,7-dioxo-8-(quinolin-8-ylmethyl)octahydro-1H-pyrazino[2,1-c][1,2,4]triazine-1-carboxamide], the “crystal form after heating” value in data set [4] (50° C.) is given as “A part of crystal D transits to an amorphous form; also recorded: mixture of crystal D”; in data set [4] (70° C.), “transits to an amorphous form”. For the same molecule, the “transition of crystal form” value in data set [2] (setting [6]) is given as “transition to crystal C occurred; also recorded: transits to crystal C”.
